Test results taken from the METLIN SMRT retention time set (Domingo-Almenara et al. 2019).

test: gradient 5% acetonitrile 3 min, to 50% in 2 min, to 85% in 15 min, held 3 min, 100 µL/min; conditions: column: Zorbax Extend-C18 2.1 x 50 mm; eluents: water / acetonitrile, 0.1% formic acid
In short: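 Using water and acetonitrile that each contained 0.1% formic acid, mixtures of ~100 pure standards were separated at 100 μL/min on a Zorbax Extend-C18 column (2.1 × 50 mm, 1.8 μm). The HPLC fed a quadrupole time-of-flight mass spectrometer working in positive and negative ionization mode, with dead and dwell volumes of 40 μL and 900 μL. Data were acquired over 3 months. Retention time was read from computationally picked adduct peaks after manual inspection of each.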

Row | RP-LC retention time | Structure (SMILES)
1 | 1150 s | CCc1sc(NC(=O)c2cc3c([nH]c2=O)CC(C)(C)CC3=O)nc1-c1ccc(C)c(C)c1
2 | 815 s | O=C(c1ccco1)N1CCc2cc(-c3ccno3)ccc21
3 | 780 s | CC(=O)c1ccc(NC(=O)CN2C(=O)CC(c3ccccc3)=Nc3cccnc32)cc1
4 | 1170 s | Cc1ccc(Nc2c(-c3ccc(Br)cc3)nc3cnccn23)c(C)c1
5 | 616 s | COc1ccc(NC(=O)C2CCN(c3cc(N4CCCC4)ncn3)CC2)cc1OC
6 | 731 s | Cc1ccc(-c2ccc(-n3nc(C)c(S(=O)(=O)N4CCN(C)CC4)c3C)nn2)cc1C
7 | 862 s | Cc1ccc(N2CCC(NC(=O)Nc3cccc(C)c3)C2=O)cc1 (stereo unspecified)
8 | 1200 s | Cc1cc(C)cc(-c2nc(C3CC(=O)N(c4ccc(Cl)cc4)C3)no2)c1 (stereo unspecified)
9 | 1020 s | Cc1ccc(-c2cc3c4nnc(SCC(=O)Nc5ccccc5Cl)n4ccn3n2)cc1C
10 | 736 s | Cn1ccc2c(cc(C(=O)NCCCc3ccccc3)n2C)c1=O
11 | 837 s | CC(=O)Nc1ccc(-c2noc(C3CCN(C(=O)C4(c5ccccc5)CC4)CC3)n2)cc1
12 | 1200 s | Cc1ccccc1-c1noc(Cn2cnc3c(cnn3-c3ccc(Br)cc3)c2=O)n1
13 | 754 s | COc1cccc(N2CCN(c3ccnc(SCC(=O)Nc4ccc(OC)c(Cl)c4)n3)CC2)c1
14 | 824 s | COc1ccccc1S(=O)(=O)NCCc1ccsc1
15 | 609 s | c1ccc2c(-c3nc(-c4ccc5c(c4)ncn5CCN4CCCCC4)no3)n[nH]c2c1
16 | 784 s | COc1ccc(CC(=O)NC(CC(C)C)C(=O)Nc2nc3ccccc3[nH]2)c(Cl)c1 (stereo unspecified)
17 | 841 s | CCOC(=O)N1CCN(C(=O)CSCC(=O)Nc2nc(-c3ccc(OC)cc3)cs2)CC1
18 | 824 s | Cc1ccc(Cn2c(=O)n(CCNC(=O)Cc3ccsc3)c3ncccc32)cc1
19 | 989 s | CCCCn1cc(S(=O)(=O)Nc2ccc(F)cc2C)c2cccnc21
20 | 613 s | COc1ccc(F)cc1S(=O)(=O)NC1CCc2nnc(C)n2CC1 (stereo unspecified)
21 | 676 s | CCN1CCCn2cc(S(=O)(=O)NCc3ccc(C)o3)cc2C1=O
22 | 795 s | Cc1ccc(NC(=O)N2CCC(n3cnc4ccc(C)cc4c3=O)CC2)c(C)c1

Row | RP-LC retention time | Structure (SMILES)
23 | 649 s | Cc1nc2ccc(C(=O)NC(C)C)cc2nc1C
24 | 914 s | CCCn1cc(CCNS(=O)(=O)c2cccc(Cl)c2C)c2cccnc21
25 | 812 s | Cc1ccc(C(=O)Nc2ccc(CN3CCN(C)CC3)c(C(F)(F)F)c2)cc1C#Cc1cnc2cccnn12
26 | 583 s | Cn1ncc2c3ccccc3n(CC(=O)NCCc3cnc[nH]3)c2c1=O
27 | 926 s | CCOc1ccc(-c2noc(CN3N=NC4C(=O)N(c5cccc(F)c5)C(=O)C43)n2)cc1OC (stereo unspecified)
28 | 870 s | CCOc1ccc(NC(=O)C2CC(=O)N(CCc3c[nH]c4ccc(Cl)cc34)C2)cc1 (stereo unspecified)
29 | 888 s | CCn1c(=O)c(C)nc2cc(-c3noc(Cc4ccc(OC)c(OC)c4)n3)ccc21
30 | 1030 s | CN(C)c1cccc(-c2nc(-c3cn(Cc4ccc(F)cc4)nn3)no2)c1
31 | 774 s | Cc1ccc(NC(=O)Cn2c(-c3cnccn3)nc(C)c(C)c2=O)cc1C
32 | 874 s | CCCS(=O)(=O)N1CCCN(C2=NS(=O)(=O)C(c3ccc(C)cc3)=C2C)CC1
33 | 746 s | CC(C)n1cnc2ccc(-c3noc(-c4cccs4)n3)cc21
34 | 1200 s | O=c1c2cc(-c3ccc(F)cc3)nn2cnn1Cc1nc(-c2cccc(C(F)(F)F)c2)no1
35 | 1360 s | O=S(=O)(NCCC1=CCCCC1)c1cccc(-c2nc(-c3ccccc3)no2)c1
36 | 1410 s | Cc1ccccc1-c1noc(-c2cccnc2N2CCN(c3ccccc3)CC2)n1
37 | 588 s | Cc1nn(CC(=O)NCCCN(C)Cc2ccccc2)c(=O)c2noc(C)c12
38 | 1030 s | Cc1cc2nn(CC(=O)Nc3ccc(F)cc3Cl)c(=O)n2c(Nc2ccccc2)n1
39 | 926 s | CCOc1cc(=O)n2c(c1C(=O)OCc1cccc(C)c1)CCCC2
40 | 1130 s | Cc1[nH]nc(-c2c(C)sc(C)c2S(=O)(=O)NCCCc2ccccc2)c1C
41 | 558 s | Cc1cc(N2CCN(C(=O)c3ccccc3)CC2)nc2nncn12
42 | 969 s | COc1ccc(-c2nc(C3CC(=O)N(c4ccc(F)cc4)C3)no2)cc1F (stereo unspecified)
43 | 925 s | Cc1ccc2c(c1)N(C(=O)c1ccc(C#N)cc1)CCO2
44 | 1390 s | CCCOc1nc2ccccc2nc1N1CCCC(C(=O)Nc2cc(C)cc(C)c2)C1 (stereo unspecified)

Continued, compound first:

Row | Structure (SMILES) | RP-LC retention time
45 | O=C(NCCc1ccccn1)C1CCc2nc(N3CCCCC3)ncc2C1 (stereo unspecified) | 575 s
46 | CCCCC(=O)N1CCC2(C1)C(=O)N(C)c1ccc(OC)cc12 (stereo unspecified) | 744 s
47 | Cc1cc(-c2c(C)sc(C)c2S(=O)(=O)N2CCN(c3cccc(Cl)c3)CC2)n[nH]1 | 1040 s
48 | CC12C(=O)N(Cc3ccccc3)C(=O)C1C1C=CC2C1 (stereo unspecified) | 844 s
49 | Cc1nc([C@@H]2CN(C(=O)c3noc(C)c3Cn3cccn3)C[C@H]2C(N)=O)n[nH]1 | 578 s
50 | Cc1cc(Cl)ccc1S(=O)(=O)NCC1CN(C)CC12CCCCC2 (stereo unspecified) | 713 s
51 | CN1C(=O)c2cccnc2Sc2cc(NC(=O)C3(c4ccccc4)CC3)ccc21 | 875 s
52 | O=C(O)c1ccccc1N1C(=O)C2C3C=CC(C3)C2C1=O (stereo unspecified) | 621 s
53 | O=C(Nc1cccc(C(F)(F)F)c1)N(Cc1ccsc1)C1CC1 | 1030 s
54 | CCN1CCN(C(=O)CCC(=O)N2CCc3c(c(C(=O)N4CCCC4)nn3C)C2)CC1 | 563 s
55 | CN1C(=O)c2cccn2CC1C(=O)NCC1CC1 (stereo unspecified) | 608 s
56 | CN1C(=O)c2ccccc2Oc2ccc(C(=O)N3CCCC3)cc21 | 719 s
57 | CCn1ccc(C(=O)N2C[C@@H]3CCCN4CCC[C@@H]([C@H]34)[C@H]2CCCC(=O)N2CCOCC2)n1 | 580 s
58 | CSc1c(C)c(SC)n2ccncc12 | 725 s
59 | CN1C(=O)N(C)C2(CCN(C(=O)c3ccco3)CC2)C1=O | 597 s
60 | CS(=O)(=O)N1CCC(OC2CCN(C(=O)Nc3ccccc3C(F)(F)F)CC2)CC1 | 768 s
61 | Cc1cc(C)cc(NC(=O)C2CCCN(S(=O)(=O)c3c[nH]c(C(=O)N4CCCC4)c3)C2)c1 (stereo unspecified) | 874 s
62 | Nc1cc(C2CCN(C(=O)c3ccccc3Br)CC2)no1 | 676 s
63 | CSc1ccccc1NC(=O)C(=O)NCCn1nc(-c2ccco2)ccc1=O | 781 s
64 | O=C(Cc1ccsc1)Nc1cccn2ncnc12 | 699 s
65 | O=C(NC1CC(=O)N(C2CC2)C1)C1CC=CCC1 (stereo unspecified) | 591 s
66 | COc1ccc(C2Cn3cnc(C(=O)N4CCC(C(=O)NCc5cccs5)CC4)c3CO2)cc1 (stereo unspecified) | 715 s
67 | Cc1cccc(CN2CCCn3nc(C(=O)NCCCN4CCOCC4)cc3C2=O)c1 | 567 s
68 | O=C(Cn1cc(-c2ccccc2)c2ncnc(N3CCOCC3)c21)N1CCCC1 | 651 s

Row | Structure (SMILES) | RP-LC retention time
69 | O=C(CCC1CCCN(C(=O)Nc2ccccc2)C1)NCc1ccc(F)cc1F (stereo unspecified) | 816 s
70 | CC(C)(C)c1ccc(/C=C/C(=O)Nc2ccc3c(c2)OCCO3)cc1 | 1190 s
71 | Cc1ccccc1-c1nc2cnccn2c1NCCC(=O)NC1CCCCC1 | 678 s
72 | CC(C)c1nc2ccc(C(=O)NCCCN3CCN(C4CCCCC4)CC3)cc2o1 | 588 s
73 | O=C(Nc1ccc2c(c1)CNCCO2)C1CC1 | 527 s
74 | O=C(Nc1ccc2c(c1)C(=O)Nc1ccccc1O2)NC1CCCCC1 | 776 s
75 | CCCS(=O)(=O)N1CCC(Cc2nncn2-c2ccccc2)CC1 | 713 s
76 | NCCc1ccc(S(=O)(=O)F)cc1 | 653 s
77 | CCC(=O)N1CCc2nc(N3CCN(C(=O)CCOC)CC3)sc2C1 | 875 s
78 | CC(C)c1nnc(-c2sccc2NC(=O)C2CCC2)o1 | 1230 s
79 | O=C(CCC1CCCN(c2cc(NC3CC3)ncn2)C1)N1CCCN(c2ncccn2)CC1 (stereo unspecified) | 618 s
80 | Cc1sc(-c2noc(C3CCC3)n2)cc1S(=O)(=O)N1CCC(C(=O)N2CCCCC2)CC1 | 1050 s
81 | CC1CCCCN1CCCNC(=O)CCC(=O)N1CCc2c(c(C(=O)N3CCCC3)nn2C)C1 (stereo unspecified) | 586 s
82 | CCOC(=O)N1CCC(NC(=O)c2cc3sc(Cl)cc3n2CC)CC1 | 985 s
83 | COCC(=O)NC1CCC12CCN(S(=O)(=O)c1cn(C)cn1)CC2 (stereo unspecified) | 623 s
84 | Cn1cc(C(=O)NCc2ccc3c(c2)OCO3)c2cccnc21 | 706 s
85 | O=S(=O)(c1cc(-c2nnc(C3CC3)o2)co1)N1CCc2ccccc2C1 | 946 s
86 | CCCN(CCC)[C@@H]1CCc2cccc(O)c2C1 | 691 s
87 | CCn1cnc2c1CN(C(=O)c1ccc3c(c1)OCO3)CC2 | 564 s
88 | Cc1cc(C)c(S(=O)(=O)N2CCCC(C(=O)NCc3ccncc3)C2)c(C)c1 (stereo unspecified) | 647 s
89 | CCOC(=O)C1=C(CN2CCN(C(C)CC)CC2)NC(=O)NC1c1ccc(F)cc1 (stereo unspecified) | 623 s
90 | CCc1nnc(NS(=O)(=O)c2ccc(NC(=O)c3ccc(Cl)s3)cc2)s1 | 821 s
91 | CC(C)n1c(=O)sc2cc(S(=O)(=O)N3CCC(C(=O)NCCc4cccs4)CC3)ccc21 | 910 s
